{
  "source": "patent US20070129426A1",
  "about": "“Therapeutic drugs for arthritis” (Shanghai Ambrosia Pharmaceutical Co., Ltd., priority 2003, published 2007)",
  "key": {"[1]": {"test_system": "adjuvant-induced arthritis of rats", "test": "Adjuvant-induced arthritis of rats", "type": "in vivo, Male Wistar rats", "method": "Experimental animal: Male Wistar rats. Body weights were about 150 g.\nMethod of administration: intraperitoneal injection. The dose of wedelolactone was 0.25 mg/kg or 12.5 mg/kg, prepared in 0.5% CMC. The dose of methotrexate (MTX) is 0.2 mg/kg.\nMethod of experiment: The animals were divided randomly into 4 groups based on their body weights. They were adapted for 3 days before experiments. The left hind planta of the rats were injected subcutaneously with 0.1 ml CFA emulsion to induce inflammation. On the Day 10, after the administration of the adjuvant, the rats were injected intraperitoneally with 5 ml/kg test compound wedelolactone for 19 continuous days. On and after the day of administration of the adjuvant, the change of thickness of the four rat paws was measured daily using a vernier caliper, and the volume of the back paw were measured using a Plethysmometer. The data from day 5, 10, 15, and 19 after administration were used for statistic analyses."}, "[2]": {"test_system": "acute inflammation of mice ear caused by dimethylbenzene", "test": "Mice ear inflammation caused by dimethylbenzene", "type": "in vivo, Kunming mice", "conditions": "25 mg/kg i.p., 4 days; 2 h after dimethylbenzene; n=10", "method": "Experimental animal: Kunming mice, body weight 18-22 g.\nMethod of administration: intraperitoneal injection. The doses of wedelolactone were 12.5 mg/kg and 25 mg/kg, respectively; the negative control used 0.5% CMC; the positive control used ibuprofen (25 mg/kg).\nMethod of experiment: The animals were divided randomly into 4 groups based on their body weights, 10 mice each group. The mice were administered with the test compound for 4 continuous days. On Day 4, both sides of the right ears of the mice were daubed evenly with 50 μl dimethylbenzene 2 hours after the administration. The left ears were not treated. The mice were left for 2 hours and then sacrificed by cervical dislocation. The ear specimens were obtained by punching both ears with a 8 mm hole-puncher. The specimens were weighed and the differences between the left and the right ears were used to evaluate the effect of the compound on the inflammation."}, "[3]": {"test_system": "rat toes edema caused by carrageenan", "test": "Rat toes edema caused by carrageenan", "type": "in vivo, Male Wistar rats", "conditions": "25 mg/kg i.p., 7 days", "method": "Experimental animal: Male Wistar rats. Body weights are about 200 g.\nMethod of administration: intraperitoneal injection. The dose of compound 1, 2, or 3 is 12 mg/kg, respectively. The negative control used 0.5% CMC; the positive control used ibuprofen, with a dose of 25 mg/kg.\nMethod of experiment: The animals were divided randomly into […] based on their body weights, […]. The 4 groups were negative control group, positive control group, compound 1 group, compound 2 group, and compound 3 group. The animals were administered daily for 7 continuous days. On Day 7, the aponeurosis of right hind toes were injected with 0.1 ml of 1% carrageenan 30 minutes after the administration. The edema of the toes at different time points after induction of the inflammation was then measured."}, "[4]": {"conditions": "0.2 mg/kg i.p., day 5 after administration"}, "[5]": {"conditions": "0.2 mg/kg i.p., day 5 after administration, adjuvant-injected paw"}, "[6]": {"conditions": "0.2 mg/kg i.p., day 10 after administration"}, "[7]": {"conditions": "0.2 mg/kg i.p., day 10 after administration, adjuvant-injected paw"}, "[8]": {"conditions": "0.2 mg/kg i.p., day 15 after administration"}, "[9]": {"conditions": "0.2 mg/kg i.p., day 15 after administration, adjuvant-injected paw"}, "[10]": {"conditions": "0.2 mg/kg i.p., day 19 after administration"}, "[11]": {"conditions": "0.2 mg/kg i.p., day 19 after administration, adjuvant-injected paw"}},
  "data": [
    {"smiles": "CN(Cc1cnc2nc(N)nc(N)c2n1)c1ccc(C(=O)N[C@@H](CCC(=O)O)C(=O)O)cc1", "note": "[MTX, methotrexate, reference compound]", "values": [
      {"measurement": "Left front paw thickness, Day 5", "setting": "[1]; [4]", "result": "4.14 ± 0.14", "unit": "mm"},
      {"measurement": "Right front paw thickness, Day 5", "setting": "[1]; [4]", "result": "4.00 ± 0.10", "unit": "mm"},
      {"measurement": "Right hind paw thickness, Day 5", "setting": "[1]; [4]", "result": "4.89 ± 0.23", "unit": "mm"},
      {"measurement": "Right hind paw volume, Day 5", "setting": "[1]; [4]", "result": "1.09 ± 0.07", "unit": "mL"},
      {"measurement": "Left hind paw thickness, Day 5", "setting": "[1]; [5]", "result": "6.96 ± 1.97", "unit": "mm"},
      {"measurement": "Left hind paw volume, Day 5", "setting": "[1]; [5]", "result": "1.68 ± 0.32", "unit": "mL"},
      {"measurement": "Left front paw thickness, Day 10", "setting": "[1]; [6]", "result": "3.96 ± 0.10", "unit": "mm"},
      {"measurement": "Right front paw thickness, Day 10", "setting": "[1]; [6]", "result": "3.84 ± 0.10", "unit": "mm"},
      {"measurement": "Right hind paw thickness, Day 10", "setting": "[1]; [6]", "result": "4.87 ± 0.18", "unit": "mm"},
      {"measurement": "Right hind paw volume, Day 10", "setting": "[1]; [6]", "result": "1.00 ± 0.10", "unit": "mL"},
      {"measurement": "Left hind paw thickness, Day 10", "setting": "[1]; [7]", "result": "7.44 ± 1.42", "unit": "mm"},
      {"measurement": "Left hind paw volume, Day 10", "setting": "[1]; [7]", "result": "1.73 ± 0.23", "unit": "mL"},
      {"measurement": "Left front paw thickness, Day 15", "setting": "[1]; [8]", "result": "4.04 ± 0.10", "unit": "mm"},
      {"measurement": "Right front paw thickness, Day 15", "setting": "[1]; [8]", "result": "4.07 ± 0.13", "unit": "mm"},
      {"measurement": "Right hind paw thickness, Day 15", "setting": "[1]; [8]", "result": "5.04 ± 0.28", "unit": "mm"},
      {"measurement": "Right hind paw volume, Day 15", "setting": "[1]; [8]", "result": "1.17 ± 0.11", "unit": "mL"},
      {"measurement": "Left hind paw thickness, Day 15", "setting": "[1]; [9]", "result": "7.86 ± 1.36", "unit": "mm"},
      {"measurement": "Left hind paw volume, Day 15", "setting": "[1]; [9]", "result": "1.93 ± 0.34", "unit": "mL"},
      {"measurement": "Left front paw thickness, Day 19", "setting": "[1]; [10]", "result": "4.09 ± 0.11", "unit": "mm"},
      {"measurement": "Right front paw thickness, Day 19", "setting": "[1]; [10]", "result": "4.00 ± 0.12", "unit": "mm"},
      {"measurement": "Right hind paw thickness, Day 19", "setting": "[1]; [10]", "result": "4.90 ± 0.08", "unit": "mm"},
      {"measurement": "Right hind paw volume, Day 19", "setting": "[1]; [10]", "result": "1.19 ± 0.09", "unit": "mL"},
      {"measurement": "Left hind paw thickness, Day 19", "setting": "[1]; [11]", "result": "7.51 ± 1.40", "unit": "mm"},
      {"measurement": "Left hind paw volume, Day 19", "setting": "[1]; [11]", "result": "1.84 ± 0.26", "unit": "mL"},
      {"measurement": "Primary inflammation of the left foot and secondary inflammation of the right foot (FIG. 2)", "setting": "[1]; treated with MTX", "result": "alleviated"}
    ]},
    {"smiles": "CC(C)Cc1ccc(C(C)C(=O)O)cc1", "note": "(stereo not shown) [ibuprofen]", "values": [
      {"measurement": "Difference (mg) between left and right ear", "setting": "[2]", "result": "11.4 ± 3.6", "unit": "mg"},
      {"measurement": "Edema index (ml) after induction of the inflammation, 1 h", "setting": "[3]; 1 h", "result": "0.31 ± 0.06", "unit": "mL"},
      {"measurement": "Edema index (ml) after induction of the inflammation, 2 h", "setting": "[3]; 2 h", "result": "0.38 ± 0.10", "unit": "mL"},
      {"measurement": "Edema index (ml) after induction of the inflammation, 4 h", "setting": "[3]; 4 h", "result": "0.42 ± 0.11", "unit": "mL"},
      {"measurement": "Edema index (ml) after induction of the inflammation, 6 h", "setting": "[3]; 6 h", "result": "0.39 ± 0.06", "unit": "mL"},
      {"measurement": "Edema index (ml) after induction of the inflammation, 24 h", "setting": "[3]; 24 h", "result": "0.37 ± 0.07", "unit": "mL"}
    ]}
  ]
}
